Results from patent publication US20210060016A1, “ANTICANCER AGENT” (JAPANESE FOUNDATION FOR CANCER RESEARCH, priority 2017, published 2021).

What was measured:
[1] = system: human colorectal cancer cell line COLO-320DM; test: MTT assay, combination of test compound and other anticancer agents; assay type: cell-based
Protocol: The ratio of residual cells in treatment of the human colorectal cancer cell line COLO-320DM with a combination of the compound prepared in each Compound Example (test compound or tankyrase inhibitory compound) and each of the anticancer agents was measured to evaluate the cell killing effect of the combination on the human colorectal cancer cell line COLO-320DM. The combinations of test compounds and anticancer agents are as follows.
(Example 8): combination of the compound prepared in Compound Example 5 and temozolomide, melphalan, gemcitabine, cytarabine (Ara-C), fluorouracil (5-FU), pemetrexed, mercaptopurine, methotrexate, irinotecan (SN-38), etoposide (VP-16), actinomycin D, daunorubicin, doxorubicin, bleomycin, mitoxantrone, oxaliplatin, carboplatin or cisplatin (Example 9): combination of the compound prepared in Compound Example 110 (G007-LK) and irinotecan (SN-38) (Example 10): combination of the compound prepared in Compound Example 11 and irinotecan (SN-38) (Example 11): combination of the compound prepared in Compound Example 19 and irinotecan (SN-38) (Example 12): combination of the compound prepared in Compound Example 101 and irinotecan (SN-38) (Example 13): combination of the compound prepared in Compound Example 1 and irinotecan (SN-38) (Example 14): combination of the compound prepared in Compound Example 113 and irinotecan (SN-38)
Commercially available compounds were used for temozolomide (manufactured by Sigma-Aldric), melphalan (manufactured by Signa-Aldrich), gemcitabine (Gemcitabine hydrochloride; manufactured by Sigma-Aldric), cytarabine (Cytosine β-D-arabinofuranoside (Ara-C); manufactured by Sigma-Aldrich), fluorouracil (5-Fluorouracil (5-FU); manufactured by Sigma-Aldrich), pemetrexed (Pemetrexed disodium heptahydrate; manufactured by Sigma-Aldrich), mercaptopurine (6-Mercaptopurine monohydrate; manufactured by Sigma-Aldrich), methotrexate (Methotrexate hydrate; manufactured by Sigma-Aldrich), irinotecan (7-Ethyl-10-hydroxycamptothecin (SN-38); manufactured by Sigma-Aldrich), etoposide (Etoposide (VP-16); manufactured by Enzo Life Sciences, Inc.), actinomycin D (manufactured by nacalai tesque), daunorubicin (Daunorubicin hydrochloride; Calbiochem), doxorubicin (Doxorubicin hydrochloride; manufactured by Sigma-Aldrich), bleomycin (Bleomycin sulfate; manufactured by Enzo Life Sciences, Inc.), mitoxantrone (Mitoxantrone dihydrochloride; manufactured by Sigma-Aldrich), oxaliplatin (manufactured by Sigma-Aldrich), carboplatin (manufactured by Sigma-Aldrich) and cisplatin (manufactured by Enzo Life Sciences, Inc.).
First, the human colorectal cancer cell line COLO-320DM was suspended in RPMI1640 medium (hereinafter, medium) containing inactivated 10% fetal bovine serum, and the cells were seeded in a 96-well microplate at 350 cells (75 μL) per well. The cells were subjected to stationary culture overnight in a CO2 incubator at 37° C. Thereafter, in Example 8, a medium (25 μL) containing a combination of the compound prepared in Compound Example 5 and each of the anticancer agents was added in triplicate in such a manner that the final concentrations of the test compound (compound prepared in Compound Example 5) were 0 nM or 30 nM and that the final concentrations of each anticancer agent were those shown in Table 14. In Examples 9 to 14, a medium (25 μL) containing a combination of the compound prepared in each of Compound Examples and each of the anticancer agents was added in triplicate in such a manner that the final concentrations of the test compound were 0 nM or those shown in FIGS. 9 to 14. As a control, 25 μL of a medium containing only dimethyl sulfoxide (DMSO) which is a solvent was added. […]

tankyrase-2 = target: T1, tankyrase-2 (Homo sapiens, UniProt Q9H2K2); test: X-ray diffraction of tankyrase-2 crystal soaked with the compound; assay type: binding
T1 sequence (Q9H2K2 1-1166): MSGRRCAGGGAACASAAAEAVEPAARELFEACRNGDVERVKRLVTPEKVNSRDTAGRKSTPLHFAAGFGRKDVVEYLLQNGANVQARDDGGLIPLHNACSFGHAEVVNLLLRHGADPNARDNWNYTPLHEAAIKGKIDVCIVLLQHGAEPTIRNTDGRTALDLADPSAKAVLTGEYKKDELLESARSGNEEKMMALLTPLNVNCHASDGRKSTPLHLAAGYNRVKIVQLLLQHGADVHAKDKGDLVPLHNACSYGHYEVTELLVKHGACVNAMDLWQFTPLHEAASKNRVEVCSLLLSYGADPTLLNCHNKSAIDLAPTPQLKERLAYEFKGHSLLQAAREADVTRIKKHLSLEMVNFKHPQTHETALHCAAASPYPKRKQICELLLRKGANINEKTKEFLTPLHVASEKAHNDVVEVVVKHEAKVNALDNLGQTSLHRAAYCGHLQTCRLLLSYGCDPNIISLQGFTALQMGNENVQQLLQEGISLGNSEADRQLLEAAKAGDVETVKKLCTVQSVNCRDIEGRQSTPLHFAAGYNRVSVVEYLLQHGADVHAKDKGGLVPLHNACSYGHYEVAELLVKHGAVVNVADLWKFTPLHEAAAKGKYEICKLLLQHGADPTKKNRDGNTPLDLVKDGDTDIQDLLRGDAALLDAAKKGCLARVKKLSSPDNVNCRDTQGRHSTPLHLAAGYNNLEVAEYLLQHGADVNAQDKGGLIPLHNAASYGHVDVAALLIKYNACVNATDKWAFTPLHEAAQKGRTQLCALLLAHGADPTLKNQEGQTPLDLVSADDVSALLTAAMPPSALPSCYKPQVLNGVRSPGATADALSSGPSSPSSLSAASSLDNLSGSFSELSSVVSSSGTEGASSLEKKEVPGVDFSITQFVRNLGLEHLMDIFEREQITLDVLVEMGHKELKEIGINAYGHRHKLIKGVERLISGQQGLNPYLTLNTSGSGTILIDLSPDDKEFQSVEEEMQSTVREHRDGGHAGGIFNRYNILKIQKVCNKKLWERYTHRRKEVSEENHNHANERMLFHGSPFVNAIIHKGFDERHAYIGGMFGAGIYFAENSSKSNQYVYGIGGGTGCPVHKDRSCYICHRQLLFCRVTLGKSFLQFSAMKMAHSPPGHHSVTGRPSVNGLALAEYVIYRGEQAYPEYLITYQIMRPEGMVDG
Description: In the present invention, whether the tankyrase inhibitory compound is a nicotinamide-type compound or an adenosine-type compound can be determined by X-ray diffraction, more specifically a method in which a complex is crystallized from a mixed liquid of a tankyrase crystal prepared beforehand and the tankyrase inhibitory compound, and subjected to X-ray diffraction (soaking method), or a method in which a complex is crystallized from a mixed liquid having the tankyrase inhibitory compound coexisting with tankyrase in a state before the crystallization, and subjected to X-ray diffraction (co-crystallization). Whether the tankyrase inhibitory compound is a dual-type compound can be determined by preparing a crystal under any one of the above-described conditions, and performing X-ray diffraction.
X-ray diffraction data of a tankyrase-2 crystal soaked with the compound prepared in Compound Example 1 was measured with BL26B2 Beam Line in a large synchrotron radiation facility Spring-8 (Sayo-gun, Hyogo). The wavelength of the X-ray was 1.000 Å, and MX-225 (Rayonix, LLC) was used as a detector. The diffraction data was treated with XDS (Kabsch, 2010) and the CCP4 program (Winn et al., 2011).

[2] = Examples 9 to 14, COLO-320DM: test compound added at the concentration shown in FIGS. 9 to 14 to irinotecan (SN-38), survival with only irinotecan = 100%

| Compound | cell survival rate ([1]; Example 8, COLO-320DM: test compound further added at 30 nM to each anticancer agent (temozolomide ... cisplatin), survival with only the anticancer agent = 100%) | cell survival rate [1, 2] | binding pocket type by X-ray diffraction (tankyrase-2) |
| --- | --- | --- | --- |
| CN1CCN(c2cc(F)c3c(c2)N(C)C(=O)C32CCN(c3nc4c(c(=O)[nH]3)CCCN4C)CC2)CC1 [compound 5, 4-Fluoro-1-methyl-1′-(8-methyl-4-oxo-3,4,5,6,7,8-hexahydropyrido [2,3-d]pyrimidin-2-yl)-6-(4-methylpiperazin-1-yl)spiro [indolin-3,4′-piperidin]-2-one] | about 50% | – | – |
| CN1CCCc2c1nc(N1CCC3(CC1)C(=O)N(C)c1cc(N4CCC(C(=O)O)CC4)cc(F)c13)[nH]c2=O [compound 11, 1-[4-Fluoro-1-methyl-1′-(8-methyl-4-oxo-3,4,5,6,7,8-hexahydropyrido [2,3-d]pyrimidin-2-yl)-2-oxospiro[indolin-3,4′-piperidin]-6-yl]piperidin-4-carboxylic acid] | – | about 50% | – |
| C[C@@H]1CN(c2cc(F)c3c(c2)N(C)C(=O)C32CCN(c3nc4c(c(=O)[nH]3)CCCN4C)CC2)C[C@H](C)O1 [compound 19] | – | about 50% | – |
| O=c1[nH]c(N2CCC3(CC2)CN(CCO)c2cc(F)cc(F)c23)nc2c1CCCC2 [compound 1, 2-[4,6-Difluoro-1-(2-hydroxyethyl)spiro [indolin-3,4′-piperidin]-1′-yl]-5,6,7,8-tetrahydroquinazolin-4(3H)-one] | – | about 50% | nicotinamide-type compound which binds to the nicotinamide binding pocket of tankyrase |
